The values that follow come from US8492346B2, “Methods of use of epsilon inhibitor compounds for the attenuation of pain” (KAI Pharmaceuticals, Inc., priority 2007, dated 2013).

A short description of data set [1]: Plasma stability in human sera. Type of data set: in vitro ADME. The following applies: plasma; human sera, 30 minutes. How it is done:
(§1) The plasma and chemical stability of various cargo/carrier peptide constructs described in Example 1 was tested. Plasma stability of the compounds was tested using both human and rat sera and the amount of starting material was determined after 30 minutes of treatment. Chemical stability was evaluated by determining the amount of starting material remaining after 9 days of treatment.
(§2) The plasma stability of various cargo/carrier peptide constructs described in Example 1 was tested using both human and rat sera and the amount of starting material was determined over time to 30 minutes of treatment. The time course data for cargo/carrier peptides KP-1586, KP-1630, and KP-1631 is shown in FIG. 3, the data for peptides KP-1632, KP-1633, and KP-1634 is shown in FIG. 4, and the data for peptides KP-1635, KP-1636, and KP-1637 is shown in FIG. 5.

A short description of data set [2]: Plasma stability in rat sera. The following applies: 30 minutes. It is filed as in vitro ADME. How it is done: as §1, §2
Data set [3] is described as follows: Chemical stability of cargo/carrier peptide constructs. Type of data set: physicochemical. On the procedure:
as §1
The chemical stability of various cargo/carrier peptide constructs described in Example 1 was tested by examining the relative concentration of the peptides over a time period of more than 200 hours at 37° C.

Where no end group is shown, it is not given here.

By share remaining is commonly meant the share of the starting amount still present when the sample was taken. For `CC(=O)N[C@@H](CCSSC[C@H](NC(C)=O)C(=O)N[C@@H](CCC(=O)O)C(=O)N[C@@H](C)C(=O)N[C@H](C(=O)N[C@@H](CO)C(=O)N[C@@H](CC(C)C)C(=O)N[C@@H](CCCCN)C(=O)N1CCC[C@H]1C(=O)N[C@H](C(N)=O)[C@@H](C)O)C(C)C)C(=O)N[C@@H](Cc1ccc(O)cc1)C(=O)NCC(=O)N[C@@H](CCCNC(=N)N)C(=O)N[C@@H](CCCCN)C(=O)N[C@@H](CCCCN)C(=O)N[C@@H](CCCNC(=N)N)C(=O)N[C@@H](CCCNC(=N)N)C(=O)N[C@@H](CCC(N)=O)C(=O)N[C@@H](CCCNC(=N)N)C(=O)N[C@@H](CCCNC(=N)N)C(=O)N[C@@H](CCCNC(=N)N)C(=O)O` [KP-1637, Ac-C-E-A-V-S-L-K-P-T-NH2], the share remaining at 0.5 h amounted to 60% in data set [1] and 78% in data set [2]. In addition, in data set [3] (9 days of treatment), the “Chemical Stability % Remaining at 9 days” value was determined as 100%. Also, in data set [3] (more than 200 hours at 37° C., FIG. 6), the “Chemical stability, time course of relative concentration” value is “marked stability”.
Consider “EAVSLKPTGGYGRKKRRQRRR-NH2 [KP-1633, E-A-V-S-L-K-P-T-G-G-TaT-NH2]”, for which the fraction remaining at 0.5 h in data set [1] was 83%; in data set [2] it was 77%. Besides, the share remaining at 216 h in data set [3] (9 days of treatment) was 99%.
